{"source": "patent US12157723B2", "about": "“Compounds” (CYBIN UK LTD, priority 2019, dated 2024)", "key": {"[1]": {"assay": "Solubility of API in water (vessel cleaning note)", "format": "physicochemical"}, "[2]": {"conditions": "humans, 0.05 mg/kg to 0.4 mg/kg, bolus injections or infusions; cited from earlier work"}, "[3]": {"conditions": "without coadministration of a monoamine oxidase inhibitor; cited from earlier work"}, "[4]": {"conditions": "cited from earlier work; for participants with psychiatric diagnoses whose symptoms improved following use: uncontrolled setting, self-report"}}, "note": "Where two headings read alike, the source gives them in different places.", "data": [{"smiles": "CN(C)CCc1c[nH]c2ccccc12.O=C(O)/C=C/C(=O)O", "note": "[API, N,N-DMT fumarate]", "values": [{"measurement": "solubility in water", "setting": "[1]", "result": "API highly soluble"}]}, {"smiles": "CN(C)CCc1c[nH]c2ccccc12", "note": "[DMT (SPL026), N,N-dimethyltryptamine]", "values": [{"measurement": "tolerability", "setting": "[2]", "result": "well-tolerated"}]}, {"smiles": "COc1ccc2[nH]cc(CCN(C)C)c2c1", "note": "[Mixture 5-MeO-DMT, 5-methoxy-N,N-dimethyltryptamine]", "values": [{"measurement": "oral bioavailability", "setting": "[3]", "result": "not orally bioavailable"}, {"measurement": "individuals reporting improvements in their conditions following use", "setting": "[4]; alcoholism or hazardous drinking, n=75 out of 113", "result": 66, "unit": "%"}, {"measurement": "participants with psychiatric diagnoses whose symptoms improved following use", "setting": "[4]; anxiety", "result": 69, "unit": "%"}, {"measurement": "participants with psychiatric diagnoses whose symptoms improved following use", "setting": "[4]; depression", "result": 77, "unit": "%"}, {"measurement": "participants with psychiatric diagnoses whose symptoms improved following use", "setting": "[4]; post-traumatic stress disorder", "result": 79, "unit": "%"}]}]}
